# Measurements as given in patent US7855166B2, “Sulfonylamino(thio)carbonyl compounds” (Bayer Cropscience GmbH, priority 2005, dated 2010).
# Assays:
# [1] = tested on: weed plants such as Sinapis alba, Echinochloa crus-galli, Lolium multiflorum, Chrysanthemum segetum, Setaria viridis, Abutilon theophrasti, Amaranthus …; assay: Post-emergence effect on weeds (greenhouse pot test, visual scoring); assay type: in vivo; conditions: applied post-emergence (three-leaf stage) at a rate of 0.3 kg or less of active substance per hectare; scored after about 3 to 4 weeks in comparison to untreated controls
# [2] = tested on: weed plants such as Sinapis alba, Chrysanthemum segetum, Avena sativa, Stellaria media, Echinochloa crus-galli, Lolium multiflorum, Setaria viridis, Abutilon …; assay: Pre-emergence effect on weeds (greenhouse pot test, visual scoring); assay type: in vivo; conditions: applied pre-emergence at a rate of 0.3 kg or less of active substance per hectare; scored after 3 to 4 weeks in comparison to untreated controls
SMILES,herbicidal action against weed plants (effect scored visually) [1],herbicidal action against weed plants (visual scoring of plant damage or emergence damage) [2]
COc1nn(C(=O)NS(=O)(=O)c2c(I)cccc2OCC(C)C)c(=O)n1C1CC1 [Compound 1.294],very good herbicidal action,very good herbidical action
CCOc1nn(C(=O)NS(=O)(=O)c2c(I)cccc2OCC(C)C)c(=O)n1C1CC1 [Compound 1.295],very good herbicidal action,very good herbidical action
COc1nn(C(=O)NS(=O)(=O)c2c(I)cccc2OCC2CC2)c(=O)n1C [Compound 1.346],very good herbicidal action,very good herbidical action
CCOc1nn(C(=O)NS(=O)(=O)c2c(I)cccc2OCC2CC2)c(=O)n1C [Compound 1.349],very good herbicidal action,very good herbidical action
CCCOc1nn(C(=O)NS(=O)(=O)c2c(I)cccc2OCC2CC2)c(=O)n1C [Compound 1.350],very good herbicidal action,very good herbidical action
COc1nn(C(=O)NS(=O)(=O)c2c(I)cccc2OCC2CC2)c(=O)n1C1CC1 [Compound 1.353],very good herbicidal action,very good herbidical action
CCOc1nn(C(=O)NS(=O)(=O)c2c(I)cccc2OCC2CC2)c(=O)n1C1CC1 [Compound 1.356],very good herbicidal action,very good herbidical action
CCCOc1nn(C(=O)NS(=O)(=O)c2c(I)cccc2OCC2CC2)c(=O)n1C1CC1 [Compound 1.359],very good herbicidal action,very good herbidical action
COc1nn(C(=O)NS(=O)(=O)c2c(I)cccc2OC(F)(F)F)c(=O)n1C [Compound 1.440],very good herbicidal action,very good herbidical action
CCOc1nn(C(=O)NS(=O)(=O)c2c(I)cccc2OC(F)(F)F)c(=O)n1C [Compound 1.443],very good herbicidal action,very good herbidical action
CCCOc1nn(C(=O)NS(=O)(=O)c2c(I)cccc2OC(F)(F)F)c(=O)n1C [Compound 1.444],very good herbicidal action,very good herbidical action
COc1nn(C(=O)NS(=O)(=O)c2c(I)cccc2OC(F)(F)F)c(=O)n1C1CC1 [Compound 1.447],very good herbicidal action,very good herbidical action
CCOc1nn(C(=O)NS(=O)(=O)c2c(I)cccc2OC(F)(F)F)c(=O)n1C1CC1 [Compound 1.450],very good herbicidal action,very good herbidical action
CCCOc1nn(C(=O)NS(=O)(=O)c2c(I)cccc2OC(F)(F)F)c(=O)n1C1CC1 [Compound 1.453],very good herbicidal action,very good herbidical action
COc1nn(C(=O)NS(=O)(=O)c2c(I)cccc2OC(F)F)c(=O)n1C [Compound 1.460],very good herbicidal action,very good herbidical action
CCOc1nn(C(=O)NS(=O)(=O)c2c(I)cccc2OC(F)F)c(=O)n1C [Compound 1.463],very good herbicidal action,very good herbidical action
CCCOc1nn(C(=O)NS(=O)(=O)c2c(I)cccc2OC(F)F)c(=O)n1C [Compound 1.464],very good herbicidal action,very good herbidical action

SMILES,herbicidal action against weed plants (effect scored visually) [1],herbicidal action against weed plants (visual scoring of plant damage or emergence damage) [2]
CC(C)Oc1nn(C(=O)NS(=O)(=O)c2c(I)cccc2OC(F)F)c(=O)n1C [Compound 1.465],very good herbicidal action,very good herbidical action
COc1nn(C(=O)NS(=O)(=O)c2c(I)cccc2OC(F)F)c(=O)n1C1CC1 [Compound 1.467],very good herbicidal action,very good herbidical action
CCOc1nn(C(=O)NS(=O)(=O)c2c(I)cccc2OC(F)F)c(=O)n1C1CC1 [Compound 1.470],very good herbicidal action,very good herbidical action
CCCOc1nn(C(=O)NS(=O)(=O)c2c(I)cccc2OC(F)F)c(=O)n1C1CC1 [Compound 1.473],very good herbicidal action,very good herbidical action
COc1nn(C(=O)NS(=O)(=O)c2c(I)cccc2OCC(F)(F)F)c(=O)n1C [Compound 1.481],very good herbicidal action,very good herbidical action
COc1nn(C(=O)NS(=O)(=O)c2c(I)cccc2OCC(F)(F)F)c(=O)n1C1CC1 [Compound 1.488],very good herbicidal action,very good herbidical action
COc1nn(C(=O)NS(=O)(=O)c2c(I)cccc2OCC(F)F)c(=O)n1C [Compound 1.501],very good herbicidal action,very good herbidical action
CCOc1nn(C(=O)NS(=O)(=O)c2c(I)cccc2OCC(F)F)c(=O)n1C [Compound 1.504],very good herbicidal action,very good herbidical action
CCCOc1nn(C(=O)NS(=O)(=O)c2c(I)cccc2OCC(F)F)c(=O)n1C [Compound 1.505],very good herbicidal action,very good herbidical action
CC(C)Oc1nn(C(=O)NS(=O)(=O)c2c(I)cccc2OCC(F)F)c(=O)n1C [Compound 1.506],very good herbicidal action,very good herbidical action
COc1nn(C(=O)NS(=O)(=O)c2c(I)cccc2OCC(F)F)c(=O)n1C1CC1 [Compound 1.508],very good herbicidal action,very good herbidical action
CCOc1nn(C(=O)NS(=O)(=O)c2c(I)cccc2OCC(F)F)c(=O)n1C1CC1 [Compound 1.511],very good herbicidal action,very good herbidical action
CCCOc1nn(C(=O)NS(=O)(=O)c2c(I)cccc2OCC(F)F)c(=O)n1C1CC1 [Compound 1.514],very good herbicidal action,very good herbidical action
COc1nn(C(=O)NS(=O)(=O)c2c(I)cccc2OC(C)C(F)(F)F)c(=O)n1C (centres unmarked) [Compound 1.522],very good herbicidal action,very good herbidical action
CCOc1nn(C(=O)NS(=O)(=O)c2c(I)cccc2OC(C)C(F)(F)F)c(=O)n1C (centres unmarked) [Compound 1.525],very good herbicidal action,very good herbidical action
CCCOc1nn(C(=O)NS(=O)(=O)c2c(I)cccc2OC(C)C(F)(F)F)c(=O)n1C (centres unmarked) [Compound 1.526],very good herbicidal action,very good herbidical action
CC(C)Oc1nn(C(=O)NS(=O)(=O)c2c(I)cccc2OC(C)C(F)(F)F)c(=O)n1C (centres unmarked) [Compound 1.527],very good herbicidal action,very good herbidical action
